Experimental data taken from patent publication US9688651B2, “Geranyl geranyl acetone analogs and uses thereof” (NYKEN Holding B.V., priority 2012, dated 2017).

Tests used:
HSP70 [1] = experiment: Hsp70 induction in murine proximal tubule (MPT) cells (Western blot); format: cell-based; conditions: 40 μM, 5 hours, outperformed positive control GGA
Description: Murine proximal tubule (MPT) cells were isolated and cultured as described previously (Borkan et al. Heat stress ameliorates ATP depletion-induced sublethal injury in mouse proximal tubule cells. Am. J. Physiol. 1997; F347-55).
The MPT cells were exposed to 40 μM of compound for 5 hours, after which the cells were harvested in RIPA buffer followed by Western blotting.
For Western-blot analysis, equal amount of protein in SDS-PAGE sample buffer was separated on 10% PAA-SDS gels. After transfer to nitrocellulose membranes (Stratagene, USA), membranes were incubated with primary antibodies against HSP70 (Enzo C92F3A/StressGen SP810) or beta-actin (Sigma A541). Horseradish peroxidase-conjugated anti-mouse or anti-sheep (Jackson ImmunoRes) was used as secondary antibody. Signals were detected by the ECL-detection method (Amersham).

HSP25 = HSP25 mRNA (qPCR) in HL-1 cardiomyocytes after mild heat shock; format: cell-based, mouse; design: key: 0 = no induction HSP levels; + = 2-10-fold induction; ++ = 10-30-fold induction; +++ = > 30-fold induction; conditions: then compound 10 μM for 6 hours
Description: (§1) HL-1 cardiomyocytes were subjected to a mild heat shock of 44° C. for 10 minutes. After a recovery of 10 minutes (37 degrees 5% CO2), compounds were added in a final concentration of 10 μM (dissolved in DMSO, final concentration 0.1%). To control myocytes, 0.1% DMSO was added. After six hours the cells were lysed in RIPA buffer and used for Western blotting as described previously.^3, 10 Compounds were also screened for their ability to upregulate HSP gene expression. Hereto, HL-1 cardiomyocytes were first subjected to a mild heat shock which activates the Heat Shock Factor. After the mild heat shock, compound (10 μM) was added to the medium of HL-1 cardiomyocytes for 6 hours, followed by determination of HSP70, HSP25, HSP90 and HSP40 which are targets of the heat shock factor 1 (HSF1) transcription factor. In addition, we determined mRNA levels of the gene encoding the glucose-responsive protein 78 (Grp78) which is HSF1-independent.

[2] = system: HSP70, HSP25, HSP90 and HSP40; experiment: Upregulation of HSP gene expression (HSF1 targets) in HL-1 cardiomyocytes; format: cell-based, mouse; conditions: HL-1, mild heat shock, 10 μM, 6 hours
Description: as §1

[3] = system: glucose-responsive protein 78 (Grp78); experiment: Grp78 mRNA (qPCR, HSF1-independent) in HL-1 cardiomyocytes; format: cell-based, mouse; design: key to HSP boosting HL-1 cardiomyocytes mRNA (qPCR) Grp78 Not HSF1: 0 = no induction HSP levels; + = 2-10-fold induction; ++ = 10-30-fold induction; +++ = > 30-fold induction; conditions: for upregulation of Grp78 mRNA: HL-1, mild heat shock, 10 μM, 6 hours; for HSP boosting HL-1 cardiomyocytes mRNA (qPCR) Grp78 Not HSF1: mild heat shock, then compound 10 μM for 6 hours
Description: as §1

HSP40 = HSP40 mRNA (qPCR) in HL-1 cardiomyocytes after mild heat shock; format: cell-based, mouse; conditions: then compound 10 μM for 6 hours
Description: as §1

HSP70 [4] = experiment: HSP70 mRNA (qPCR) in HL-1 cardiomyocytes after mild heat shock; format: cell-based, mouse; conditions: then compound 10 μM for 6 hours
Description: as §1

HSP90 = HSP90 mRNA (qPCR) in HL-1 cardiomyocytes after mild heat shock; format: cell-based, mouse; conditions: then compound 10 μM for 6 hours
Description: as §1

HSP70 [5] = experiment: HSP70 protein boosting in HL-1 cardiomyocytes after mild heat shock (Western blot); format: cell-based, mouse; conditions: for induction of mammalian HSP70 protein expression: HL-1, mild heat shock, 10 μM, 6 hours; for HSP boosting HL-1 cardiomyocytes Protein HSP70: mild heat shock 44°C 10 min, then compound 10 μM for 6 hours, Western blot
Description: HL-1 atrial myocytes, a cell line derived from adult mouse atria were obtained from Dr. William Claycomb (Louisiana State University, New Orleans, La., USA). The myocytes were maintained in Complete Claycomb Medium (JRH, UK) supplemented with 100 μM norepinephrine stock (consisting of 10 mM norepinephrine (Sigma, The Netherlands) dissolved in 0.3 mM L-ascorbic acid (Sigma)), 4 mM L-glutamine (Gibco, The Netherlands) and 10% FBS (Sigma). The myocytes were cultured in flasks coated with 0.02% gelatin (Sigma), in a 5% CO2 atmosphere at 37° C.
HL-1 cardiomyocytes were subjected to a mild heat shock of 44° C. for 10 minutes. After a recovery of 10 minutes (37 degrees 5% CO2), compounds were added in a final concentration of 10 μM (dissolved in DMSO, final concentration 0.1%). To control myocytes, 0.1% DMSO was added. After six hours the cells were lysed in RIPA buffer and used for Western blotting as described previously.^3, 10
(§2) Western-blot analysis was performed as described previously^3, 10. Equal amount of protein in SDS-PAGE sample buffer was sonicated before separation on 10% PAA-SDS gels. After transfer to nitrocellulose membranes (Stratagene, The Netherlands), membranes were incubated with primary antibodies against HSP25 (Stressgen, The Netherlands, SPA-801, 1:1000), HSP27 (Stressgen, SPA-800, 1:1000), HSP70 (Stressgen, SPA-810, 1:1000), GAPDH (Affinity Reagents, The Netherlands) or PARP (Santa Cruz, The Netherlands, sc-7150, 1:500). Horseradish peroxidase-conjugated anti-mouse or anti-rabbit (Santa-Cruz Biotechnology, The Netherlands) was used as secondary antibody. Signals were detected by the ECL-detection method (Amersham, The Netherlands) and quantified by densitometry using GeneTools software from Syngene (The Netherlands).
Compounds were also screened for HSP70 boosting effects. Hereto, HL-1 cardiomyocytes were first subjected to a mild heat shock which activates the Heat Shock Factor. After the mild heat shock, compound (10 μM) was added to the medium of HL-1 cardiomyocytes for 6 hours, followed by determination of the HSP70 amount.

[6] = system: MCF-7 breast cancer cells; experiment: MCF-7 cell death, ratio death/living cells (trypan blue); format: cell-based, human; design: key to Cell Death MCF-7 cancer cells Death/living 100 μM: 0 = no dead cells; + = P < 0.05; ++ = P < 0.01; +++ = P < 0.001; conditions: 100 μM; 16-20 hours; trypan blue
Description: MCF-7 breast cancer cells were cultured in DMEM supplemented with 10% FCS. […] Ratio death and living cells was determined by using trypan blue staining of death cells. The cell pellets were lysed in RIPA buffer and used for Western blot analysis.
Since we observed that some compounds aggravate tachypacing-induced contractile dysfunction, we next investigated if these compounds can induce programmed cell death in a human breast cancer cell-line MCF-7. […] In total 28 compounds were tested for cell death. […] GGA was used as a control as well as non-treated MCF-7 cells. […] The findings indicate that GGA-like compounds which aggravate heart failure can induce programmed cell death in MCF-7 breast cancer cell-line.

HSP27 = HSP27 Western blot in MCF-7 cells; format: cell-based, human; conditions: MCF-7 lysate, 16-20 hours
Description: (§3) MCF-7 breast cancer cells were cultured in DMEM supplemented with 10% FCS. Test compounds were added to the medium in a final concentration of […] for 16-20 hours. Ratio death and living cells was determined by using trypan blue staining of death cells. The cell pellets were lysed in RIPA buffer and used for Western blot analysis.
as §2

PARP = PARP cleavage in MCF-7 cells (Western blot); format: cell-based, human; design: key to Cell Death MCF-7 cancer cells PARP: 0 = no dead cells; + = P < 0.05; ++ = P < 0.01; +++ = P < 0.001; conditions: MCF-7 lysate, Western blot, 16-20 hours
Description: as §3, §2
Since we observed that some compounds aggravate tachypacing-induced contractile dysfunction, we next investigated if these compounds can induce programmed cell death in a human breast cancer cell-line MCF-7. Hereto, MCF-7 cells were incubated for 16 hours with 10 μM of a test compound after which the number of death and living cells was determined. In total 28 compounds were tested for cell death. […] GGA was used as a control as well as non-treated MCF-7 cells. […] The findings indicate that GGA-like compounds which aggravate heart failure can induce programmed cell death in MCF-7 breast cancer cell-line.

HSP70 [7] = experiment: HSP70 Western blot in MCF-7 cells; format: cell-based, human; design: key: + = P < 0.05; ++ = P < 0.01; +++ = P < 0.001; conditions: MCF-7 lysate, 16-20 hours
Description: as §3, §2

SMILES	induction of HSP70 expression in renal (MPT) cells (HSP70 [1])	HSP boosting HL-1 cardiomyocytes mRNA (qPCR) HSP 25 (HSP25)	induction of HSP gene expression [2]	upregulation of Grp78 mRNA [3]	HSP boosting HL-1 cardiomyocytes mRNA (qPCR) Grp78 Not HSF1 [3]	HSP boosting HL-1 cardiomyocytes mRNA (qPCR) HSP 40 (HSP40)	HSP boosting HL-1 cardiomyocytes mRNA (qPCR) HSP 70 (HSP70 [4])	HSP boosting HL-1 cardiomyocytes mRNA (qPCR) HSP 90 (HSP90)	induction of mammalian HSP70 protein expression (HSP70 [5])	HSP boosting HL-1 cardiomyocytes Protein HSP70 (HSP70 [5])	Cell Death MCF-7 cancer cells Death/living 100 μM [6]	Cell Death MCF-7 cancer cells HSP 27 (HSP27)	Cell Death MCF-7 cancer cells PARP (PARP)	Cell Death MCF-7 cancer cells HSP 70 (HSP70 [7])
CC(C)=CCC/C(C)=C/CCc1cc(O)n[nH]1 [Compound 62, (E)-5-(4,8-dimethylnona-3,7-dien-1-yl)-1H-pyrazol-3-ol]	strong inducers	0	strong inducers	no upregulation	0	+ (+ = 2-10-fold induction)	+ (+ = 2-10-fold induction)	+ (+ = 2-10-fold induction)	potent inducers	++ (++ = 10-30-fold induction)				
CCOC(=O)C(Cc1ccccc1)C(=O)CC/C=C(\C)CCC=C(C)C (stereo not shown) [Compound 23]		+ (+ = 2-10-fold induction)	strong inducers	no upregulation	0	+ (+ = 2-10-fold induction)	++ (++ = 10-30-fold induction)	+ (+ = 2-10-fold induction)	potent inducers					
CC(=O)CC/C=C(\C)CC/C=C(\C)CC/C=C(\C)CCC=C(C)C [GGA, (5E,9E,13E)-6,10,14,18-tetramethylnonadeca-5,9,13,17-tetraen-2-one, reference compound]		++ (++ = 10-30-fold induction)			0	+ (+ = 2-10-fold induction)	+ (+ = 2-10-fold induction)	++ (++ = 10-30-fold induction)		++ (++ = 10-30-fold induction)	0	+ (+ = P < 0.05)	0	0
CC(=O)CC(=O)CC/C=C(\C)CCC=C(C)C [Compound 28, (E)-8,12-Dimethyltrideca-7,11-Diene-2,4-Dione]		+ (+ = 2-10-fold induction)	strong inducers	no upregulation	0	+ (+ = 2-10-fold induction)	+ (+ = 2-10-fold induction)	+ (+ = 2-10-fold induction)	potent inducers		0	++ (++ = P < 0.01)	0	0
CCOC(=O)C(C)(C)C(=O)CC/C=C(\C)CCC=C(C)C [Compound 76, (E)-ethyl 2,2,7,11-tetramethyl-3-oxododeca-6,10-dienoate]		++ (++ = 10-30-fold induction)	strong inducers	no upregulation	0	+ (+ = 2-10-fold induction)	+++ (+++ = > 30-fold induction)	++ (++ = 10-30-fold induction)	potent inducers	+++ (+++ = > 30-fold induction)				
